Source: US11400082B2, “Methods of treating elevated plasma cholesterol” (Montréal Heart Institute, priority 2017, dated 2022)

What was measured:
in vitro = conditions: pH 7.4; for -k: 1 μM; for half-life at 1 μM / microsomal CLint at 1 μM: microsomes
Experimental: Pooled human liver microsomes (HLM; Cat #X008067 lot IHG) and pooled male Sprague Dawley rat liver microsomes (RLM; Cat #M00001 Lot NNK) were purchased from BioreclamationIVT, Baltimore, Md. NADPH (Cat #N1630, 95% HPLC) and DMSO (GC grade) were purchased from Sigma-Aldrich, Canada. Potassium phosphate buffer (100 mM) with magnesium chloride pH 7.4 was prepared freshly. […] Reactions were initiated by adding NADPH (final concentration 1 mM) in all the wells. Reactions without NADPH were also incubated (final point only) to rule out non-NADPH metabolism or chemical instability in the incubation buffer. Reactions were terminated at each time point (0, 5, 10, 20, 30, 45 and 60 min) by transferring 50 μL in a new 96 well plate and adding 100 μl of acetonitrile containing an internal standard (labetalol at 2 μM). The plates were centrifuged at 4000 rpm for 5 min, and an aliquot of supernatant was diluted with one volume of water+0.1% formic acid before analysis by LC-MS/MS. Reference samples were also prepared at concentrations between 0.002 and 2 μM in buffer containing microsomes, by adding the diluted solutions of the compound to the buffer containing microsomes quenched with 2 volume of acetonitrile containing the internal standard (whereas the incubation T0 is obtained by quenching the microsomes containing the compound, then adding NADPH). Samples were monitored for parent compound disappearance in Multi Reaction Monitoring (MRM) mode using LC-MS/MS. The peak area ratios of analyte versus internal standard compared to the calibration curve were used to calculate concentration at each time point. The elimination constant (ke, min-1) was obtained from the log-linear regression of the concentration (y) versus time (t). The half-life was calculated as T½ (min)=0.693/ke. The microsomal intrinsic clearance (Clint, μL/min/mg of protein) was calculated by the following equation: […]

C57BL/6 mice = test: Efficacy and safety in hypercholesterolemic animal models, C57BL/6 mice; assay type: in vivo
Experimental: For in vivo proof-of-concept animal studies, wild-type C57BL/6 male mice (˜25 g; obtained from Charles River Laboratories) or Golden Syrian (˜120 g obtained from Envigo++) were housed in the 12 hour light/12 hour dark cycle, temperature and humidity controlled MHI animal facility. […] TD.88137, Envigo) for 14 days. […] Equivalent volume of vehicle containing corresponding formulations were orally administered to mice daily and designated as placebo (vehicle). […] Total cholesterol (catalog no. 439-17501, Wako) was quantified in total plasma and in each 0.3 mL collected fractions or in-line (Lipidomics Core of The Group on Molecular and Cell Biology of Lipids, University of Alberta) according to the manufacturer's instructions. Relative quantitation of AUC of total cholesterol corresponding to non-HDL lipoprotein positive fractions obtained from FPLC profiles are included in Table 3. Serum aspartate aminotransferase (AST) and alanine transaminase (ALT) were measured by the Montreal Heart Institute biochemical clinical chemistry platform according to manufacturer's recommendations.

[1] = Cell viability assay (MTT); assay type: cell-based; conditions: human; overnight incubation, viability relative to DMSO
Experimental: Following incubation, media was replaced and cells incubated for 4 h with 100 μL of phenol red-free DMEM containing 0.5 mg/mL of MTT (3-[4,5-dimethylthiazol-2-yl]-2,5-diphenyltetrazolium bromide; thiazolyl blue; catalog no. M5655, Sigma-Aldrich). Afterwards, media was removed and converted dye solubilized with 100 μL acidic isopropanol (0.06 N) and absorbance measured at a wavelength of 570 nm with background subtraction at 650 nm. Arbitrary units of cell viability of a given example were determined relative to equal volume of DMSO (vehicle) for each concentration used.

[2] = C57BL/6, HFD, 40 mpk/d, 10 days, animals out of n

-k (in vitro; human): 0.000703 ± 1.9e-05 min⁻¹
half-life at 1 μM (in vitro; human): 16.4 ± 0.45 h
microsomal CLint at 1 μM (in vitro; human): 1.17 ± 0.03 µL/min/mg
-k (in vitro; male, Sprague Dawley, rat): 0.00126 ± 0.00019 min⁻¹
half-life at 1 μM (in vitro; male, Sprague Dawley, rat): 6.73 ± 0.467 h
microsomal CLint at 1 μM (in vitro; male, Sprague Dawley, rat): 6.19 ± 0.42 µL/min/mg
SMILES: O=C(NO)c1ncc(COc2ccc(F)cc2)c(CO)c1O [Compound 2, 5-(4-fluoro-phenoxymethyl)-3-hydroxy-4-hydroxymethyl-pyridine-2-carboxylic acid hydroxyamide]
LDL-C (%) (FPLC TC) (pooled plasma) (C57BL/6 mice; C57BL/6, Chow, 25 mpk/d oral gavage, 3 days, n 3): −31%
LDL-C (%) (FPLC TC) (pooled plasma) (C57BL/6 mice; C57BL/6, HFD, 5 mpk/d oral gavage, 10 days, n 4): −3 ± 8%
LDL-C (%) (FPLC TC) (pooled plasma) (C57BL/6 mice; C57BL/6, HFD, 25 mpk/d oral gavage, 10 days, n 4): −28 ± 8%
LDL-C (%) (FPLC TC) (pooled plasma) (C57BL/6 mice; C57BL/6, HFD, 40 mpk/d oral gavage, 10 days, n 4): −35 ± 2%
ALT (3 × ULN) (C57BL/6 mice; [2]): 0/4
AST (3 × ULN) (C57BL/6 mice; [2]): 0/4
CC50 [1]: 50 µM
